Measurements taken from the supplement of paper PMC10307832.

How the values were obtained:
Assay in all cases: relative viability (nuclei count vs DMSO), 5 days (fraction); higher = more cells survive
[1] = compound: CO[C@@H]1[C@H](N(C)C(=O)c2ccccc2)C[C@H]2O[C@]1(C)n1c3ccccc3c3c4c(c5c6ccccc6n2c5c31)C(=O)NC4 [Midostaurin] + CC(=O)c1c(C)c2cnc(Nc3ccc(N4CCNCC4)cn3)nc2n(C2CCCC2)c1=O [Palbociclib] (partner 0.5 µM)
Outline: (§1)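 Lung cancer cell lines were pin-tool dosed in 1536-well plates on the day after seeding, with either a lone drug or a fixed anchor-drug dose plus five library-drug doses (not always all listed) in √10 steps. Nuclei were counted on 4× images after 5 days. Relative viability is the ratio of treated-well to vehicle-well nuclei counts, with each value a median of duplicate plates.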

[2] = compound: COc1cc(-c2nn([C@H]3CC[C@H](N4CCN(C(C)=O)CC4)CC3)c3ncnc(N)c23)ccc1NC(=O)c1cc2ccccc2n1C + CC(=O)c1c(C)c2cnc(Nc3ccc(N4CCNCC4)cn3)nc2n(C2CCCC2)c1=O [Palbociclib] (partner 0.5 µM)
Outline: as §1

[3] = compound: COc1cc(-c2nn([C@H]3CC[C@H](N4CCN(C(C)=O)CC4)CC3)c3ncnc(N)c23)ccc1NC(=O)c1cc2ccccc2n1C + Cc1nc(NC(=O)N2CCC[C@H]2C(N)=O)sc1-c1ccnc(C(C)(C)C(F)(F)F)c1 [Alpelisib] (partner 2 µM)
Outline: as §1

Midostaurin + Linsitinib = compound: CO[C@@H]1[C@H](N(C)C(=O)c2ccccc2)C[C@H]2O[C@]1(C)n1c3ccccc3c3c4c(c5c6ccccc6n2c5c31)C(=O)NC4 [Midostaurin] + C[C@]1(O)C[C@@H](c2nc(-c3ccc4ccc(-c5ccccc5)nc4c3)c3c(N)nccn32)C1 [Linsitinib] (partner 1 µM)
Outline: as §1

[4] = compound: COc1cc(-c2nn([C@H]3CC[C@H](N4CCN(C(C)=O)CC4)CC3)c3ncnc(N)c23)ccc1NC(=O)c1cc2ccccc2n1C + N=C(N)NC(=N)NCCc1ccccc1 [Phenformin] (partner 250 µM)
Outline: as §1

Cell Line	relative viability ([1]; first compound 0.01 µM)	relative viability ([1]; first compound 0.03162 µM)	relative viability ([1]; first compound 0.1 µM)	relative viability ([1]; first compound 0.3162 µM)	relative viability ([2]; first compound 0.0128 µM)	relative viability ([2]; first compound 0.128 µM)	relative viability ([2]; first compound 1.28 µM)	relative viability ([3]; first compound 0.0128 µM)	relative viability ([3]; first compound 0.128 µM)	relative viability ([3]; first compound 1.28 µM)	relative viability (Midostaurin + Linsitinib; first compound 0.01 µM)	relative viability (Midostaurin + Linsitinib; first compound 0.03162 µM)	relative viability (Midostaurin + Linsitinib; first compound 0.1 µM)	relative viability (Midostaurin + Linsitinib; first compound 0.3162 µM)	relative viability ([4]; first compound 0.0128 µM)	relative viability ([4]; first compound 0.128 µM)	relative viability ([4]; first compound 1.28 µM)	relative viability ([2]; first compound 0.04048 µM)	relative viability ([3]; first compound 0.04048 µM)	relative viability ([4]; first compound 0.04048 µM)
NCI-H727	0.628	0.666	0.66	0.634	0.615	0.553	0.583	0.62	0.454	0.405	0.329	0.337	0.349	0.227	0.559	0.495	0.619	–	–	–
NCI-H838	0.237	0.229	0.251	0.185	0.222	0.216	0.181	1.03	1.01	0.664	1.01	0.828	0.739	0.367	0.694	0.509	0.388	0.208	1.01	0.53
NCI-H1355	0.409	0.429	0.443	0.468	0.448	0.416	0.415	0.981	0.828	0.737	0.755	0.83	0.865	0.838	0.476	0.459	0.41	0.402	0.795	0.401
NCI-H1395	0.626	0.753	0.639	0.703	0.656	0.589	0.497	0.947	0.995	0.953	1.06	1.22	1.01	1.02	0.419	0.431	0.395	0.647	1.47	0.461
NCI-H1437	0.353	0.326	0.34	0.367	0.302	0.281	0.283	0.968	0.897	0.757	1.2	0.992	1.12	1.05	0.429	0.331	0.287	0.326	0.992	0.303
NCI-H1651	0.518	0.52	0.525	0.53	0.522	0.513	0.49	0.965	0.911	0.862	1.06	0.851	1.03	0.957	0.352	0.3	0.31	0.539	0.941	0.329
NCI-H1666	0.634	0.669	0.661	0.657	0.678	0.6	0.622	0.981	0.921	0.769	0.897	0.916	0.77	0.822	0.568	0.577	0.537	0.661	0.864	0.567
NCI-H1734	0.334	0.38	0.373	0.351	0.37	0.335	0.276	0.684	0.716	0.573	0.832	0.803	0.728	0.928	0.331	0.391	0.379	0.332	0.636	0.297
NCI-H1755	0.482	0.433	0.429	0.383	0.54	0.458	0.402	1.04	0.884	0.656	0.97	0.923	0.865	0.692	0.647	0.592	0.614	0.467	0.992	0.547
NCI-H1792	0.593	0.709	0.635	0.634	0.663	0.657	0.636	0.78	0.719	0.55	0.577	0.556	0.499	0.526	0.263	0.369	0.309	0.626	0.593	0.288
NCI-H1793	0.305	0.349	0.354	0.342	0.367	0.261	0.239	0.734	0.595	0.442	1.08	0.77	0.651	0.559	0.388	0.317	0.289	0.342	0.682	0.252
NCI-H1915	0.451	0.523	0.531	0.524	0.578	0.495	0.44	1.13	1.02	0.857	1.05	1.06	1.09	1.11	0.387	0.375	0.334	0.441	1.07	0.396
NCI-H1944	0.36	0.402	0.318	0.35	0.352	0.363	0.203	0.827	0.784	0.506	1.17	1.25	1.31	1.28	0.238	0.184	0.165	0.32	0.879	0.198
NCI-H1975	0.524	0.65	0.564	0.583	0.534	0.513	0.23	0.659	0.547	0.257	0.92	0.959	0.727	0.575	0.393	0.385	0.254	0.541	0.757	0.392
NCI-H1993	0.495	0.802	0.794	0.656	0.616	0.617	0.605	0.76	0.599	0.569	0.782	0.712	0.655	0.669	0.539	0.486	0.488	0.58	0.771	0.509
NCI-H2009	0.175	0.192	0.287	0.404	0.172	0.219	0.179	1.15	1.16	1.08	1.2	1.05	1.06	1.19	0.517	0.511	0.515	0.148	1.2	0.433

Cell Line	relative viability ([1]; first compound 0.01 µM)	relative viability ([1]; first compound 0.03162 µM)	relative viability ([1]; first compound 0.1 µM)	relative viability ([1]; first compound 0.3162 µM)	relative viability ([2]; first compound 0.0128 µM)	relative viability ([2]; first compound 0.128 µM)	relative viability ([2]; first compound 1.28 µM)	relative viability ([3]; first compound 0.0128 µM)	relative viability ([3]; first compound 0.128 µM)	relative viability ([3]; first compound 1.28 µM)	relative viability (Midostaurin + Linsitinib; first compound 0.01 µM)	relative viability (Midostaurin + Linsitinib; first compound 0.03162 µM)	relative viability (Midostaurin + Linsitinib; first compound 0.1 µM)	relative viability (Midostaurin + Linsitinib; first compound 0.3162 µM)	relative viability ([4]; first compound 0.0128 µM)	relative viability ([4]; first compound 0.128 µM)	relative viability ([4]; first compound 1.28 µM)	relative viability ([2]; first compound 0.04048 µM)	relative viability ([3]; first compound 0.04048 µM)	relative viability ([4]; first compound 0.04048 µM)
NCI-H2023	0.482	0.428	0.341	0.192	0.436	0.318	0.293	0.607	0.546	0.521	0.653	0.617	0.515	0.403	0.404	0.355	0.323	0.358	0.651	0.426
NCI-H2085	0.497	0.467	0.491	0.494	0.491	0.455	0.441	1.08	0.975	0.658	0.842	0.865	0.801	0.768	0.756	0.781	0.654	0.48	0.949	0.655
NCI-H2087	0.213	0.232	0.268	0.27	0.244	0.237	0.222	1.29	1.27	1.2	0.985	0.885	0.934	1.01	0.505	0.529	0.462	–	0.781	–
NCI-H2126	0.332	0.364	0.359	0.383	0.35	0.344	0.329	0.757	0.746	0.536	0.742	0.673	0.748	0.792	0.534	0.539	0.435	0.372	0.858	0.501
NCI-H2228	0.569	0.954	0.842	0.845	0.761	0.772	0.522	0.774	0.692	0.45	0.731	0.879	0.828	0.679	0.278	0.327	0.327	0.672	0.793	0.26
NCI-H2347	0.442	0.449	0.395	0.404	0.461	0.392	0.416	1.05	0.924	1.03	0.896	0.837	0.899	0.927	0.51	0.482	0.346	0.43	0.948	–
NCI-H2405	0.534	0.575	0.521	0.51	0.551	0.486	0.269	0.83	0.722	0.272	0.965	1.01	–	0.853	0.408	0.409	0.28	0.396	0.419	0.272
NCI-H3122	0.156	0.241	0.197	0.229	0.197	0.169	0.189	0.753	0.772	0.537	0.913	0.987	1.13	1.05	0.397	0.359	0.27	–	–	0.35
PC-3 [JPC-3]	0.561	0.554	0.546	0.602	0.588	0.529	0.676	1.04	1.04	1.09	0.913	0.862	0.925	0.934	0.488	0.461	0.512	0.621	1.09	0.474
PC-14	0.487	0.643	0.485	0.369	0.515	0.486	0.433	1.01	0.902	0.852	0.995	0.943	0.996	0.975	0.646	0.581	0.751	0.503	0.951	0.599
RERF-LC-KJ	0.993	1.08	1.13	1.02	1.08	1.07	0.972	0.811	0.555	0.654	0.945	0.868	0.89	0.926	0.377	0.413	0.379	1.19	0.717	0.448
SK-LU-1	0.404	0.409	0.379	0.399	0.41	0.357	0.249	1.15	0.821	0.441	1.11	0.961	1.06	0.664	0.588	0.48	0.338	0.369	0.917	0.425
SK-MES-1	0.326	0.359	0.27	0.246	0.298	0.319	0.277	0.972	0.789	0.668	1.05	0.954	1.06	1.07	0.785	0.587	0.631	0.374	0.872	0.708
SW 1573	0.422	0.504	0.424	0.247	0.393	0.172	0.347	0.788	0.695	0.509	0.747	0.848	0.979	1.02	0.344	0.371	0.399	0.388	0.508	0.34
UMC-11	0.352	0.391	0.364	0.284	0.349	0.335	0.341	0.892	0.986	0.746	0.984	0.998	0.95	0.586	0.285	0.311	0.279	0.341	0.956	0.336
